The test system of data set [1] is control and CLP mice. Nature of the data set: Novel Object Recognition test (NOR). The class given is in vivo, mouse. To be noted: septic (CLP) mice, systemic MnTBAP treatment. How it is done:
(§1) Data shown are mean values (±SD). Gray bars represent MnTBAP-treated mice from either CLP or control groups, and black bars represent placebo-treated mice from either CLP or Control groups. Two-way analyses of variance (ANOVAs) (CLP vs Control×MnTBAP vs Placebo) were performed. When a significant interaction was observed, planned comparisons were performed for the CLP/Placebo group against the three other groups. The significance of the planned comparisons is indicated with asterisks (*p<0.05, **p<0.01, ***p<0.001, ****p<0.0001).
(§2) MnTBAP is commercially available: it is for example manufactured by Sigma-Aldrich, Calbiochem, etc. For use it is dissolved following the guidance provided by the manufacturer.
(§3) Twice a week after the CLP, survival mice were gently handled for at least four 5-min sessions to habituate to the experimenter. Then, 20 and 21 days after CLP, mice were submitted to the novel object location (NOL) and novel object recognition (NOR) tests. […]
(§4) The familiarization sessions consisted on 10 min of free exploration of two identical objects, placed inside the same open field arena that the mice had visited on the previous day. […] Then, the percentage of exploration of the new object was calculated, reflecting the retention of the familiar object memory at long-term (24 h). […]

The conditions of data set [2]: Liu et al., 2013b; cited from earlier work.
For data set [3], the system named is control and CLP mice. Nature of the data set: Novel Object Location test (NOL). The class given is in vivo, mouse. As to conditions: F(1,29)=0.0007, p=0.98; day 20. How it is done: as §1, §2, §3, §4
The subject of data set [4] is brain tissue. Description: Cytokine and chemokine levels in mice brain at 21 days after CLP (Luminex). The class given is in vivo, mouse. As to conditions: CLP vs control × MnTBAP vs placebo. How it is done:
(§5) We used peritonitis induced by CLP as a model of sepsis (Rittirsch et al., 2009). Briefly, animals were anesthetized with ketamine (Imalgene® 1000 100 mg/kg, Merial, France) and Xylazine (Rompun® 2% 20 mg/kg, Bayer, Germany) prior to surgery. After laparotomy, caecum was ligatured at the distal third with a 4.0 suture and the distal part was perforated twice with a 21 Gauge needle.
as §2
Brain: snap frozen brain samples (n=6 per condition and per time point) were thawed, lysed by mechanical agitation (lysing matrix), and supernatant was aliquoted and stored at −80° C. until analysis.
These samples were processed for Luminex® multiple cytokine and chemokine analysis (Bio-Plex® Pro™ Mouse Cytokine Standard 23-flex, Group I and Standard 9-flex, Group II). Fifty microlitres of sample was analyzed on the Bio-flex system (Bio-Rad) in accordance with the manufacturers instructions. Data analyses for all assays were performed using the Bio-flex Manager software. […] Normalization was done by weight of the frozen brain sample.
The data represent the level of protein expression in pg mg^−1 of brain tissue using Luminex®. Control mice were non-operated but anesthetized. Median values of n=5 mice per group are represented. […]

Data set [5] relates to Cd11b+ microglial cells. Nature of the data set: Gene expression of microglial immuno-phenotype markers (RT-qPCR) in Cd11b+ microglial cells sorted from brain at 21 days. The class given is in vivo, mouse. How it is done: as §5, §2
Brains were collected for cell dissociation and Cdllb-positive cell separation using a magnetic coupled antibody (MACS® Technology), according to the manufacturer's protocol (Miltenyi Biotec, Bergisch Gladbach, Germany) and as previously described (Schang et al., 2014). In brief, mice were intracardially perfused with NaCl 0,9%. The brains are then dissociated using the Neural Tissue Dissociation Kit containing trypsin and the gentleMACS Octo Dissociator with Heaters. From the resulting brain homogenate, cd11 b-positive cells were enriched using the anti-cd11 b MicroBeads. After elution the isolated cells were centrifuged for 5 min at 200G and conserved at −80° C.
Total RNA was isolated from cells using the RNAeasy Micro kit (Qiagen), and reverse-transcribed using Superscript® III Reverse transcriptase (Invitrogen). Real-time quantitative PCR was performed in duplicate for each sample using Power Sybr Green PCR Master Mix (Applied Biosystems) and the rate of dye incorporation was monitored using the StepOne™ Plus RealTime PCR system (Applied Biosystems). Data were analyzed by StepOne Plus RT PCR software v2.1 and Microsoft excel. Amplification specificity was assessed with a melting curve analysis. TBP transcript levels were used for normalisation of each target (=ΔCT). Real-time PCR CT values were analyzed using the 2^−(ΔCt) method to calculate the fold expression (Schmittgen et al., 2008). The data are presented as relative mRNA units with respect to control group (expressed as fold over control value). Primer sequences available upon request.
We have adopted nomenclature consistent with previous work in microglia (Chhor et al., 2013). We distinguished 3 types of phenotypes according to the mRNA expression levels of markers listed in brackets: pro-inflammatory phentoype (Ptgs2, Cd32, Cd86), alternative phenotype (Lgals3, Igf1 and CD206) and immunoregulatory phenotype (II1rn, II4ra, Socs3).
Quantification of pro-inflammatory markers (CD32, CD86 and Ptgs2 mRNA), anti-inflammatory markers (Lgals3, IGF1 and CD206 mRNA) and immuno-regulator markers (IL1-RA, IL4-Rα and SOCS3 mRNA) by RT-qPCR in Cd11b+ microglial cells magnetically sorted from the brain at 21 days. Control mice were non-operated but anesthetized. The data shown represent median values of n=5 mice per group. Two-way analyses of variance (ANOVAs) CLP vs Control×MnTBAP vs Placebo were performed. […] Data are represented as fold changes using the 2-ΔΔCT method.

“Also recorded” adds a separate entry of the source.

The source of these data is patent US20240148749A1 (priority 2021, published 2024).

`O=C(O)c1ccc(/C2=C3\C=CC(=N3)/C(c3ccc(C(=O)O)cc3)=c3/cc/c4[n]3[Mn]([Cl])[n]3c2ccc3/C(c2ccc(C(=O)O)cc2)=C2/C=CC(=N2)\C=4c2ccc(C(=O)O)cc2)cc1` [MnTBAP, Manganese (III) tetrakis (4-benzoic acid)porphyrin chloride]: the “cognition / long-term cognitive function” value in data set [1] was “restored cognition; also recorded: successfully restores long-term cognitive function”. For the same compound, the BBB penetration entry in data set [2] is recorded as “poorly penetrates the BBB”. Besides, the “NOL exploration time, CLP vs control×MnTBAP vs placebo interaction” value in data set [3] is “no significant CLP vs control×MnTBAP vs placebo interaction”. Further, the “measured brain tissue cytokines, two-way ANOVA” value in data set [4] is listed as “did not show any CLP vs control×MnTBAP vs placebo interaction, or difference linked to condition or treatment between the groups”. For the same compound, the “IL1β expression in microglial cells” value in data set [5] (CLP-MnTBAP group vs CLP-placebo group, p=0.01, did not differ from Control-placebo) is “significantly lower”. Besides, the “Lgals3 (M2a) gene expression in microglial cells” value in data set [5] (CLP-MnTBAP group vs CLP-placebo group, p=0.023, did not differ from Control-placebo) was “significantly lower”. Moreover, the microglial immunophenotype entry in data set [5] (MnTBAP alone (control mice)) is given as “did not alter”. The microglial immunoprofile entry in data set [5] (septic mice) is “shifts microglial immunoprofile from a neurotoxic toward a neuroprotective phenotype”. In addition, the “Ptgs2 (M1 marker) transcripts in microglial cells” value in data set [5] (septic mice, MnTBAP compared to the placebo group, p=0.026, did not differ from Control-placebo) is given as “significantly reduced”. The “IL1RA (M2b marker) transcripts in microglial cells” value in data set [5] (septic mice, MnTBAP compared to the placebo group, p=0.047, did not differ from Control-placebo) is listed as “significantly reduced”.
